Measurements published in US20210405025A1, “IDENTIFYING COMPOUNDS FOR TREATING CANCER AND USE THEREOF” (THE UAB RESEARCH FOUNDATION, priority 2018, published 2021).
Structures can show the parent of a compound that is named as a salt.

Each molecule was assayed on relapsed AML cells (assay: Drug sensitivity assay, 1,536-well, 3-day culture with individual approved drugs at 10 μM, viability by alamarBlue). Conditions: not given.
Type: cell-based, human
Description: Drug sensitivity assays were performed using a 1,536-well platform where all cells and reagents were deposited in wells using an acoustic liquid handling unit that is highly accurate for dispensing of nanoliter volumes of liquid. […] After dispensing the cells into the wells, an independent drug at a known concentration is added to each well and incubated with the cells. After three days, the percentage of live cells in each well is determined to assess the killing efficiency of each compound. […] Cell viability assays are known to those of skill in the art. See, for example, Pemovska et al., Individualized systems medicine strategy to tailor treatments for patients with chemorefractory acute myeloid leukemia. Cancer Discovery 3:1416-1429, 2013; Pabst et al., Identification of small molecules that support human leukemia stem cell activity ex vivo. Nature Methods 11:436-442, 2014; Baccelli et al., A novel approach for the identification of efficient combination therapies in primary human acute myeloid leukemia specimens. Blood Cancer Journal 7:e529, 2017. In studies described herein, the 1,536-well format was utilized, which allowed for use of four times fewer cells as well as less drug and media components due to the small assay volume of 5 microliters. […] Other compounds like CellTiter-Glo (Promega, Madison, Wis.) are equally appropriate reagents for determining cell viability.
Conditions for the drug screening assays were as described in Pabst et al., Identification of small molecules that support human leukemia stem cell activity ex vivo, Nature Methods 11:436-442, 2014). Using this protocol, cells were cultured in Iscove's Modified Dulbecco's Medium (IMDM), 15% BIT (bovine serum albumin, insulin, transferrin; Stem Cell Technologies 09500 (Vancouver, Calif.)), 100 ng/ml SCF (Shenandoah 100-04 (Warwick, Pa.)), 50 ng/ml FLT3L (Shenandoah 100-21), 20 ng/ml IL-3 (Shenandoah 100-80), 20 ng/ml G-CSF (Shenandoah 100-72), 10^-4 M β-mercaptoethanol, gentamicin (50 μg/ml) and ciprofloxacin (10 μg/ml).
Cells were removed from liquid nitrogen and placed in a 37° C. bath, just until thawed. For 1,536-well screens utilizing 6,000 wells about 100 million cells were thawed. The volume was doubled with pre-warmed culture media and placed on ice for about one to two minutes. The cells were brought to a final volume of about 8 to 10 mL before spinning down at 1,100 rpm for 5 min at 10° C. The pelleted cells were resuspended in 10 mL of culture media and plated in a tissue-culture treated T75 flask at a density of 1 to 2 million cells/ml. The cells were cultured overnight prior to fluorescence-activated cell sorting of viable cells on the following day.
After cells were cultured overnight, a cell scraper was used to remove any cells that adhered to the plastic. The cells were gently pipetted up and down to break up aggregates. Then, the entire volume was transferred to a 50 mL conical tube through a 70 micron cell strainer to remove cell clumps. The T75 flask was rinsed and scraped with about 10 mL HBSS and transferred to the same 50 mL conical tube through the strainer. The harvested cells were spun down at 1,100 rpm for 5 min at 10° C. The cells were then resuspendd in about 300-500 microliters FACS buffer (HBSS+2% FBS+1× propidium iodide) and transferred to a FACS tube. The tube was placed on ice and viable cells that are forward- and side-scatter gated on viable myeloid blasts were sorted by FACS (the scatter gate should exclude small lymphocytes, large myeloid cells, and debris). After sorting the required number of viable cells, the cells were spun down at 1,100 rpm for 5 min at 10° C. and subsequently resuspended at 4,000-4,500 cells per 5 microliter volume of complete culture media with growth factors and penicillin/streptomycin.

For `COC(=O)C1=C(C)NC(C)=C(C(=O)OCCCN2CCC(c3ccccc3)(c3ccccc3)CC2)[C@H]1c1cccc([N+](=O)[O-])c1` [NIGULDIPINE], the “#Cases >70% cell death” value was 12.

Same assay, conditions: number of relapsed AML cases out of 18 tested with >70% cell death; 10 μM, 3-day culture

In order of falling “#Cases >70% cell death” value:
1. C[C@]12CC[C@H](O)C[C@H]1CC[C@@H]1[C@@H]2C[C@@H](O)[C@]2(C)[C@@H](C3=CC(=O)OC3)CC[C@]12O [DIGOXIGENIN]  18
2. Nc1nc(Cl)nc2c1ncn2[C@@H]1O[C@H](CO)[C@@H](O)[C@@H]1F [CLOFARABINE]  18
3. CCCCCCc1ccc(O)cc1O.Nc1c2ccccc2nc2ccccc12 [ACRISORCIN]  18
4. CC(C)C[C@H](NC(=O)[C@H](Cc1ccccc1)NC(=O)c1cnccn1)B(O)O [BORTEZOMIB]  18
5. C[C@@H]1C[C@@H]([C@H](O)CC2CC(=O)NC(=O)C2)C(=O)[C@@H](C)C1 [CYCLOHEXIMIDE]  18
6. C[C@H]1O[C@@H](O[C@H]2[C@@H](O)C[C@H](O[C@H]3[C@@H](O)C[C@H](O[C@H]4CC[C@@]5(C)[C@H](CC[C@@H]6[C@@H]5C[C@@H](O)[C@]5(C)[C@@H](C7=CC(=O)OC7)CC[C@]65O)C4)O[C@@H]3C)O[C@@H]2C)C[C@H](O)[C@@H]1O [DIGOXIN]  18
7. C=CCNC1=C2C[C@@H](C)C[C@H](OC)[C@H](O)[C@@H](C)/C=C(\C)[C@H](OC(N)=O)[C@@H](OC)/C=C\C=C(/C)C(=O)NC(=CC1=O)C2=O [TANESPIMYCIN (17-AAG), TANESPIMYCIN]  18
8. Cc1ncc(-c2ccnc(Nc3ccc(S(C)(=O)=O)cc3)n2)n1C(C)C [AZD-5438]  17
9. CC(C)CC(=O)Nc1n[nH]c2c1CN(C(=O)C1CCN(C)CC1)C2(C)C [PHA-793887]  16
10. Nc1ccn([C@@H]2O[C@H](CO)[C@@H](O)[C@@H]2O)c(=O)n1 [CYTARABINE]  16
11. CC(C)(C)CC(C)(C)c1ccc(OCCOCC[N+](C)(C)Cc2ccccc2)cc1 [BENZETHONIUM CHLORIDE]  16
12. NC(=O)Nc1cc(-c2cccc(F)c2)sc1C(=O)N[C@H]1CCCNC1 [AZD-7762]  14
13. CCOC(=O)C1=C(COCCN)NC(C)=C(C(=O)OC)C1c1ccccc1Cl (stereo not shown) [AMLODIPINE]  14
14. COc1cc2c(c(OC)c1OC)-c1ccc(OC)c(=O)cc1[C@@H](NC(C)=O)CC2 [COLCHICINE]  13
15. CC(C)(C)c1[nH]cnc1/C=c1\[nH]c(=O)/c(=C/c2ccccc2)[nH]c1=O [PLINABULIN]  12
16. Cc1cc(Nc2nc(N[C@@H](C)c3ncc(F)cn3)ncc2Cl)[nH]n1 [AZD-1480]  12
17. Cc1cc2nc3ccc(N(C)C)cc3[s+]c2cc1N [TOLONIUM CHLORIDE]  11
18. CCC(C)(C)c1ccc(CC(C)CN2C[C@@H](C)O[C@@H](C)C2)cc1 (stereo partly shown) [AMOROLFINE]  9
19. CCN(CC)CCOc1ccc(Cc2ccccc2)cc1 [TESMILIFENE HYDROCHLORIDE]  9
20. CC1=C(/C=C/C(C)=C/C=C/C(C)=C/C(=O)Nc2ccc(O)cc2)C(C)(C)CCC1 [FENRETINIDE]  9
21. CC(C)N1CCN(c2ccc(OCC3COC(Cn4cncn4)(c4ccc(Cl)cc4Cl)O3)cc2)CC1 (stereo not shown) [TERCONAZOLE]  7
22. CCC(C)n1ncn(-c2ccc(N3CCN(c4ccc(OCC5COC(Cn6cncn6)(c6ccc(Cl)cc6Cl)O5)cc4)CC3)cc2)c1=O (stereo not shown) [ITRACONAZOLE]  6
23. O=c1[nH]c(=O)n([C@H]2C[C@H](O)[C@@H](CO)O2)cc1C(F)(F)F [TRIFLURIDINE]  6
24. CC(C)/N=c1\cc2n(-c3ccc(Cl)cc3)c3ccccc3nc-2cc1Nc1ccc(Cl)cc1 [CLOFAZIMINE]  6
25. COc1c(C)c2c(c(O)c1C/C=C(\C)CCC(=O)OCCN1CCOCC1)C(=O)OC2 [MYCOPHENOLATE MOFETIL]  5
26. CCOc1cc2ncc(C#N)c(Nc3ccc(OCc4cccc(F)c4)c(Cl)c3)c2cc1NC(=O)/C=C/CN(C)C [HKI 357]  4
27. CN(C)CCCOc1nn(Cc2ccccc2)c2ccccc12 [BENZYDAMINE]  4
28. COc1ccc2c(c1)CN(C(=O)CCN1CCC(Cc3ccccc3)CC1)CCS2 [K201]  4
29. O=C(Nc1ccc(-c2ccnc(Nc3ccc(N4CCOCC4)cc3)n2)cc1)C1CCCN1 (stereo not shown) [XL019]  3
30. O=C1Cc2cc(CCN3CCN(c4nsc5ccccc45)CC3)c(Cl)cc2N1 [ZIPRASIDONE]  3
31. OCCN1CCN(CCCN2c3ccccc3Sc3ccc(Cl)cc32)CC1 [PERPHENAZINE]  2
32. C=CC(=O)N1CCC[C@@H](n2nc(-c3ccc(Oc4ccccc4)cc3)c3c(N)ncnc32)C1 [IBRUTINIB]  2
33. C=C1C[C@H]2[C@@H]3C=C(C)C4=CC(=O)CC[C@]4(C)[C@H]3CC[C@]2(C)[C@@]1(OC(C)=O)C(C)=O [MELENGESTROL ACETATE]  2
34. O=C(CCCN1CC=C(n2c(=O)[nH]c3ccccc32)CC1)c1ccc(F)cc1 [DROPERIDOL]  2
35. COc1cc2c(cc1OC)CN(CCc1ccc(NC(=O)c3cccc4c(=O)c5cccc(OC)c5[nH]c34)cc1)CC2  2
36. COCCOC(=O)C1=C(C)NC(C)=C(C(=O)OC/C=C/c2ccccc2)C1c1cccc([N+](=O)[O-])c1 (stereo not shown) [CILNIDIPINE]  1
37. NNC(=O)c1ccncc1 [ISONIAZID]  1
38. CCCOc1ccc(C(=O)OCCN(CC)CC)cc1N [PROPARACAINE]  1
39. COc1ccc(C2CNC(=O)C2)cc1OC1CCCC1 (stereo not shown) [ROLIPRAM]  1
40. CN(C(=O)CN(CCO)CC(=O)N(C)C(C)(C)Cc1ccccc1)C(C)(C)Cc1ccccc1 [OXETHAZAINE]  1
41. COc1cccc([C@@H](C)NCCCc2ccccc2Cl)c1 [TECALCET HYDROCHLORIDE]  1
42. CN(Cc1cc(Br)cc(Br)c1N)C1CCCCC1 [BROMHEXINE]  1
43. CCOC(=O)c1c(N)sc2c1CCN(Cc1ccccc1)C2 [Y-3642]  1
44. O=C(Nc1cccnn1)N1CCC(=Cc2cccc(Oc3ccc(C(F)(F)F)cn3)c2)CC1 [PF-4457845]  1
45. C[C@H]1C[C@@H]2[C@H]([C@@H](O)C[C@@]3(C)[C@H]2CC[C@]3(O)C(=O)CO)[C@@]2(C)C=CC(=O)C=C12 [METHYLPREDNISOLONE]  1
46. CNC[C@H](O)[C@@H](O)[C@H](O)[C@H](O)CO [MEGLUMINE]  1
47. OCCOCCN1CCN(C2=Nc3ccccc3Sc3ccccc32)CC1 [QUETIAPINE]  1
48. COc1ccc2c(c1)/C(=C/c1cnc[nH]1)C(=O)N2 [SU-9516]  1
49. C[C@@]1(C(=O)Nc2ccc(F)nc2)CCCN1c1nc(Nc2cc(C3CC3)n[nH]2)c2cccn2n1 [BMS-754807]  1
50. CC(C)(C)NCC(O)c1ccc(O)c(CO)c1 (stereo not shown) [ALBUTEROL]  1
51. Cc1ccc(C(=O)c2cc(O)c(O)c([N+](=O)[O-])c2)cc1 [TOLCAPONE]  1
